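Briefly, cells in 96-well plates were exposed to five compound concentrations for 48 h, and endpoints were estimated by linear interpolation. TGI marks complete inhibition of growth.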
Key:
Assay in all cases: DTP human tumour cell line panel, 48 h
RXF-631 renal = system: RXF-631 renal
SNB-78 CNS = system: SNB-78 CNS
XF 498 CNS = system: XF 498 CNS

Row | SMILES | TGI (RXF-631 renal) [µM] | TGI (SNB-78 CNS) [µM] | TGI (XF 498 CNS) [µM]
1 | COc1cc(C(=O)CC2OC(=O)C(Cl)=C2Cl)ccc1Cl (stereo not given) | > 100 | > 100 | > 100
2 | Clc1ccc(C[P+]2(c3ccccc3)CCCCC2)cc1 |  | > 100 | 86.7

Reference: PubChem BioAssay (NCI)
